This assay concerns MV-4-11 cells. The experiment in a line: Gene expression microarray analysis (Affymetrix PrimeView) and GSEA. The format is cell-based, human. The arrangement: RFU PODN (11730768_x_at) / Fold change /veh PODN (11730768_x_at) / RFU LINC00158 (11744669_a_at) / Fold change /veh LINC00158 (11744669_a_at) / RFU DUSP10 (11751237_a_at) / Fold change /veh DUSP10 (11751237_a_at) / RFU ID3 (11757404_x_at) / Fold change /veh ID3 (11757404_x_at) / RFU PLEKHG5 (11737974_s_at) / Fold change /veh PLEKHG5 (11737974_s_at) / RFU LRRC4B (11730491_at) / Fold change /veh LRRC4B (11730491_at) / RFU GIMAP4 (11747438_a_at) / Fold change /veh GIMAP4 (11747438_a_at) / RFU KRT8 (11758183_x_at) / Fold change /veh KRT8 (11758183_x_at) / RFU CNN1 (11734310_a_at) / Fold change /veh CNN1 (11734310_a_at) / RFU VPS37D (11726825_at) / Fold change /veh VPS37D (11726825_at) / RFU C10orf10 (11716522_x_at) / Fold change /veh C10orf10 (11716522_x_at) / RFU KIR2DL2 /// KIR2DL4 /// KIR2DL5A /// KIR2DL5B /// KIR2DS1 /// KIR2DS2 /// KIR2DS3 /// KIR2DS4 /// KIR3DL3 /// KIR3DL3 /// KIR3DS1 (11738374_at) / Fold change /veh KIR2DL2 /// KIR2DL4 /// KIR2DL5A /// KIR2DL5B /// KIR2DS1 /// KIR2DS2 /// KIR2DS3 /// KIR2DS4 /// KIR3DL3 /// KIR3DL3 /// KIR3DS1 (11738374_at) / RFU C1QL1 (11718748_at) / Fold change /veh C1QL1 (11718748_at) / RFU TMPRSS4 (11747572_a_at) / Fold change /veh TMPRSS4 (11747572_a_at) / RFU HAMP (11756126_x_at) / Fold change /veh HAMP (11756126_x_at) / RFU RNFT2 (11725882_a_at) / Fold change /veh RNFT2 (11725882_a_at) / RFU NR4A2 (11747474_a_at) / Fold change /veh NR4A2 (11747474_a_at) / RFU ABCC12 (11746883_a_at) / Fold change /veh ABCC12 (11746883_a_at) / RFU TMEM136 (11760407_x_at) / Fold change /veh TMEM136 (11760407_x_at) / RFU CLDN22 /// WWC2 (11732394_at) / Fold change /veh CLDN22 /// WWC2 (11732394_at) / RFU HLA-DPB1 (11760878_x_at) / Fold change /veh HLA-DPB1 (11760878_x_at) / RFU SPINT1 (11716480_a_at) / Fold change /veh SPINT1 (11716480_a_at) / RFU GAP43 (11754022_s_at) / Fold change /veh GAP43 (11754022_s_at) / RFU A4GNT (11735810_at) / Fold change /veh A4GNT (11735810_at) / RFU PRB3 (11715151_x_at) / Fold change /veh PRB3 (11715151_x_at) / RFU TUBB4B (11761932_at) / Fold change /veh TUBB4B (11761932_at) / RFU CAPN14 (11732068_a_at) / Fold change /veh CAPN14 (11732068_a_at) / RFU TMCC2 (11721928_a_at) / Fold change /veh TMCC2 (11721928_a_at) / RFU IRGQ (11745062_a_at) / Fold change /veh IRGQ (11745062_a_at) / RFU FAM174B (11720279_a_at) / Fold change /veh FAM174B (11720279_a_at) / RFU TMPRSS4 (11748680_a_at) / Fold change /veh TMPRSS4 (11748680_a_at) / RFU FAM212B (11763350_a_at) / Fold change /veh FAM212B (11763350_a_at) / RFU PLEKHG5 (11743358_a_at) / Fold change /veh PLEKHG5 (11743358_a_at) / RFU ZSCAN30 (11745921_a_at) / Fold change /veh ZSCAN30 (11745921_a_at) / RFU CMKLR1 (11741424_a_at) / Fold change /veh CMKLR1 (11741424_a_at) / RFU LOC101060620 /// MAPK8IP1 (11723275_at) / Fold change /veh LOC101060620 /// MAPK8IP1 (11723275_at) / RFU SPTSSB (11747773_x_at) / Fold change /veh SPTSSB (11747773_x_at) / RFU PRSS12 (11739890_at) / Fold change /veh PRSS12 (11739890_at) / RFU BIN1 (11741810_x_at) / Fold change /veh BIN1 (11741810_x_at) / RFU WNT11 (11732464_a_at) / Fold change /veh WNT11 (11732464_a_at) / RFU C10orf10 (11716521_a_at) / Fold change /veh C10orf10 (11716521_a_at) / RFU C5orf56 (11738089_at) / Fold change /veh C5orf56 (11738089_at) / RFU CYB561 (11721691_x_at) / Fold change /veh CYB561 (11721691_x_at) / RFU ANKRD19P (11752326_a_at) / Fold change /veh ANKRD19P (11752326_a_at) / RFU OR2T12 /// OR2T33 /// OR2T8 (11738714_s_at) / Fold change /veh OR2T12 /// OR2T33 /// OR2T8 (11738714_s_at) / RFU VCAN (11748164_a_at) / Fold change /veh VCAN (11748164_a_at) / RFU JSRP1 (11732532_at) / Fold change /veh JSRP1 (11732532_at) / RFU KRTAP10-11 (11738290_x_at) / Fold change /veh KRTAP10-11 (11738290_x_at) / RFU MYO3A (11730013_a_at) / Fold change /veh MYO3A (11730013_a_at) / RFU EBF3 (11725865_a_at) / Fold change /veh EBF3 (11725865_a_at) / RFU CAMK2N1 (11719241_x_at) / Fold change /veh CAMK2N1 (11719241_x_at) / RFU C5orf56 (11738088_a_at) / Fold change /veh C5orf56 (11738088_a_at) / RFU OLFML3 (11715873_a_at) / Fold change /veh OLFML3 (11715873_a_at) / RFU LOC100653217 /// NTM (11731650_a_at) / Fold change /veh LOC100653217 /// NTM (11731650_a_at) / RFU MAPK11 (11762145_a_at) / Fold change /veh MAPK11 (11762145_a_at) / RFU FIZ1 (11724087_x_at) / Fold change /veh FIZ1 (11724087_x_at) / RFU OASL (11726364_x_at) / Fold change /veh OASL (11726364_x_at) / RFU SOX15 (11748057_x_at) / Fold change /veh SOX15 (11748057_x_at) / RFU CD79A (11719716_a_at) / Fold change /veh CD79A (11719716_a_at) / RFU HIST1H1D (11736915_at) / Fold change /veh HIST1H1D (11736915_at) / RFU CASKIN2 (11723855_a_at) / Fold change /veh CASKIN2 (11723855_a_at) / RFU LOC730098 (11760151_x_at) / Fold change /veh LOC730098 (11760151_x_at) / RFU OR4N2 (11742367_at) / Fold change /veh OR4N2 (11742367_at) / RFU PRRT2 (11749266_a_at) / Fold change /veh PRRT2 (11749266_a_at) / RFU SNX32 (11753110_a_at) / Fold change /veh SNX32 (11753110_a_at) / RFU CDHR5 (11726645_a_at) / Fold change /veh CDHR5 (11726645_a_at) / RFU RCAN1 (11760418_a_at) / Fold change /veh RCAN1 (11760418_a_at) / RFU FAM167A (11723789_a_at) / Fold change /veh FAM167A (11723789_a_at) / RFU FAM26E (11764081_at) / Fold change /veh FAM26E (11764081_at) / RFU ISYNA1 (11749810_s_at) / Fold change /veh ISYNA1 (11749810_s_at) / RFU ACY1 (11761880_at) / Fold change /veh ACY1 (11761880_at) / RFU 11764098_at / Fold change /veh 11764098_at / RFU SAMD14 (11745864_x_at) / Fold change /veh SAMD14 (11745864_x_at) / RFU NPB (11741838_a_at) / Fold change /veh NPB (11741838_a_at) / RFU TMPRSS6 (11731388_a_at) / Fold change /veh TMPRSS6 (11731388_a_at) / RFU KRTAP10-2 (11738614_at) / Fold change /veh KRTAP10-2 (11738614_at) / RFU ARHGAP8 /// PRR5-ARHGAP8 (11727945_x_at) / Fold change /veh ARHGAP8 /// PRR5-ARHGAP8 (11727945_x_at) / RFU KRTAP5-7 /// NADSYN1 (11734609_at) / Fold change /veh KRTAP5-7 /// NADSYN1 (11734609_at) / RFU RASL12 (11751679_a_at) / Fold change /veh RASL12 (11751679_a_at) / RFU CDKN2B (11736163_a_at) / Fold change /veh CDKN2B (11736163_a_at) / RFU PRF1 (11729649_at) / Fold change /veh PRF1 (11729649_at) / RFU, ZNF638 /// ZNF638-IT1 / Fold change vs veh, ZNF638 /// ZNF638-IT1 / RFU, PANK3 / Fold change vs veh, PANK3 / RFU, SH3YL1 / Fold change vs veh, SH3YL1 / RFU, ZEB2 / Fold change vs veh, ZEB2 / RFU, NRIP1 / Fold change vs veh, NRIP1 / RFU, PTTG1IP / Fold change vs veh, PTTG1IP / RFU, CAPN2 / Fold change vs veh, CAPN2 / RFU, MED14 / Fold change vs veh, MED14 / RFU, SNORA58 / Fold change vs veh, SNORA58 / RFU, C1orf63 / Fold change vs veh, C1orf63 / RFU, LRRFIP1 / Fold change vs veh, LRRFIP1 / RFU, NDUFAF7 / Fold change vs veh, NDUFAF7 / RFU, SLC12A2 / Fold change vs veh, SLC12A2 / RFU, IBTK / Fold change vs veh, IBTK / RFU, ESF1 / Fold change vs veh, ESF1 / Fold change vs veh, TMEM50B / RFU, TAOK1 / Fold change vs veh, TAOK1 / RFU, ACBD3 / Fold change vs veh, ACBD3 / RFU, TMA16 / Fold change vs veh, TMA16 / RFU, RWDD3 / Fold change vs veh, RWDD3 / RFU, BCAT1 / Fold change vs veh, BCAT1 / RFU, EDEM3 / Fold change vs veh, EDEM3 / RFU, TMEM33 / Fold change vs veh, TMEM33 / RFU, WDR75 / Fold change vs veh, WDR75 / RFU, AHCTF1 / Fold change vs veh, AHCTF1 / RFU, TFRC / Fold change vs veh, TFRC / RFU, ZDHHC17 / Fold change vs veh, ZDHHC17 / RFU, NOM1 / Fold change vs veh, NOM1 / RFU, ARL8B / Fold change vs veh, ARL8B / RFU, ZBTB11 / Fold change vs veh, ZBTB11 / RFU, TAMM41 / Fold change vs veh, TAMM41 / RFU, KIAA1704 /// LOC100996395 / Fold change vs veh, KIAA1704 /// LOC100996395 / RFU, ING1 / Fold change vs veh, ING1 / RFU, TRMT61B / Fold change vs veh, TRMT61B / RFU, FUBP3 / Fold change vs veh, FUBP3 / RFU, TP53 / Fold change vs veh, TP53 / RFU, TNKS2 / Fold change vs veh, TNKS2 / RFU, ZFP14 / Fold change vs veh, ZFP14 / RFU, ACTR2 / Fold change vs veh, ACTR2 / RFU, PPP3R1 / Fold change vs veh, PPP3R1 / RFU, PIK3R1 / Fold change vs veh, PIK3R1 / RFU, HNRNPA1 / Fold change vs veh, HNRNPA1 / RFU, RNF170 / Fold change vs veh, RNF170 / RFU, ZNF28 / Fold change vs veh, ZNF28 / RFU, RNGTT / Fold change vs veh, RNGTT / RFU, OGT / Fold change vs veh, OGT / RFU, BRD1 / Fold change vs veh, BRD1 / RFU, MARS / Fold change vs veh, MARS / RFU, ZNF655 / Fold change vs veh, ZNF655 / RFU, FAHD1 / Fold change vs veh, FAHD1 / RFU, BDP1 / Fold change vs veh, BDP1 / RFU, LRRCC1 / Fold change vs veh, LRRCC1 / RFU, ARID1A / Fold change vs veh, ARID1A / RFU, ZNF146 / Fold change vs veh, ZNF146 / RFU, ZNF330 / Fold change vs veh, ZNF330 / RFU, GPN3 / Fold change vs veh, GPN3 / RFU, C9orf123 / Fold change vs veh, C9orf123 / RFU, N4BP2L2 / Fold change vs veh, N4BP2L2 / RFU, ARFIP1 / Fold change vs veh, ARFIP1 / RFU, FAM179B / Fold change vs veh, FAM179B / RFU, BCL10 / Fold change vs veh, BCL10 / RFU, UHRF1BP1L / Fold change vs veh, UHRF1BP1L / RFU, BET1 / Fold change vs veh, BET1 / RFU, CNOT2 / Fold change vs veh, CNOT2 / RFU, ZNF268 / Fold change vs veh, ZNF268 / Fold change vs veh, ZNF507 / RFU, DGCR2 / Fold change vs veh, DGCR2 / RFU, WDSUB1 / Fold change vs veh, WDSUB1 / Fold change vs veh, HSP90B1 /// MIR3652 / RFU, ADSS / Fold change vs veh, ADSS / RFU, GK / Fold change vs veh, GK / RFU, ZNF148 / Fold change vs veh, ZNF148 / RFU, TAF9 / Fold change vs veh, TAF9 / RFU, SLC1A5 / Fold change vs veh, SLC1A5 / RFU, SLMO2 / Fold change vs veh, SLMO2 / RFU, ABCC4 / Fold change vs veh, ABCC4 / RFU, LOC101060439 /// RAP1B / Fold change vs veh, LOC101060439 /// RAP1B / RFU, RFX7 / Fold change vs veh, RFX7 / RFU, GTPBP10 / Fold change vs veh, GTPBP10 / RFU, CNEP1R1 / Fold change vs veh, CNEP1R1 / RFU, BIVM-ERCC5 /// ERCC5 / Fold change vs veh, BIVM-ERCC5 /// ERCC5 / RFU, ILF3 / Fold change vs veh, ILF3 / RFU 11762660_at / Fold change /veh 11762660_at / RFU VCAN (11757783_s_at) / Fold change /veh VCAN (11757783_s_at) / RFU DDX43 (11728927_at) / Fold change /veh DDX43 (11728927_at) / RFU KRT8 (11758188_x_at) / Fold change /veh KRT8 (11758188_x_at) / RFU NKD1 (11759106_at) / Fold change /veh NKD1 (11759106_at) / RFU SRD5A1 (11742802_a_at) / Fold change /veh SRD5A1 (11742802_a_at) / RFU TPSAB1 /// TPSB2 (11721975_s_at) / Fold change /veh TPSAB1 /// TPSB2 (11721975_s_at) / RFU GSTM3 (11746129_a_at) / Fold change /veh GSTM3 (11746129_a_at) / RFU IL23R (11737362_x_at) / Fold change /veh IL23R (11737362_x_at) / RFU TMEM51 (11727254_a_at) / Fold change /veh TMEM51 (11727254_a_at) / RFU PIWIL2 (11732686_x_at) / Fold change /veh PIWIL2 (11732686_x_at) / RFU ORM1 (11744905_x_at) / Fold change /veh ORM1 (11744905_x_at) / RFU CCDC152 (11743942_at) / Fold change /veh CCDC152 (11743942_at) / RFU ECM1 (11717891_a_at) / Fold change /veh ECM1 (11717891_a_at) / RFU IL23R (11748794_a_at) / Fold change /veh IL23R (11748794_a_at) / RFU TNFAIP8L3 (11732012_x_at) / Fold change /veh TNFAIP8L3 (11732012_x_at) / RFU MBOAT4 (11741988_at) / Fold change /veh MBOAT4 (11741988_at) / RFU 11764193_at / Fold change /veh 11764193_at / RFU TMEM53 (11763286_at) / Fold change /veh TMEM53 (11763286_at) / RFU MAGEB2 (11727129_at) / Fold change /veh MAGEB2 (11727129_at) / RFU TMEM200A (11744735_a_at) / Fold change /veh TMEM200A (11744735_a_at) / RFU CCDC152 (11751479_a_at) / Fold change /veh CCDC152 (11751479_a_at) / RFU FAM211A (11726209_a_at) / Fold change /veh FAM211A (11726209_a_at) / RFU RGS16 (11746705_a_at) / Fold change /veh RGS16 (11746705_a_at) / RFU VCAN (11755009_s_at) / Fold change /veh VCAN (11755009_s_at) / RFU RHOB (11743442_s_at) / Fold change /veh RHOB (11743442_s_at) / RFU RGS16 (11720943_a_at) / Fold change /veh RGS16 (11720943_a_at) / RFU RGS16 (11720944_at) / Fold change /veh RGS16 (11720944_at) / RFU, VPS4B / Fold change vs veh, VPS4B / RFU, CREB1 / Fold change vs veh, CREB1 / RFU, DNAJC13 / Fold change vs veh, DNAJC13 / RFU, GNAQ / Fold change vs veh, GNAQ / RFU, CDK5R1 / Fold change vs veh, CDK5R1 / RFU, ZRANB3 / Fold change vs veh, ZRANB3 / RFU, CUL4A / Fold change vs veh, CUL4A / RFU, CCNY / Fold change vs veh, CCNY / RFU, UFL1 / Fold change vs veh, UFL1 / RFU, COG3 / Fold change vs veh, COG3 / RFU, DIAPH2 / Fold change vs veh, DIAPH2 / RFU, SKA2 / Fold change vs veh, SKA2 / RFU, AFF3 / Fold change vs veh, AFF3 / RFU, LMF1 / Fold change vs veh, LMF1 / RFU, IPO11 / Fold change vs veh, IPO11 / RFU, DFFB / Fold change vs veh, DFFB / RFU, FOXP1 / Fold change vs veh, FOXP1 / RFU, CARD8 / Fold change vs veh, CARD8 / RFU, STRN3 / Fold change vs veh, STRN3 / RFU, ADK / Fold change vs veh, ADK / RFU, RASSF2 / Fold change vs veh, RASSF2 / RFU, WIPF1 / Fold change vs veh, WIPF1 / RFU, LARP1B / Fold change vs veh, LARP1B / RFU, RASA1 / Fold change vs veh, RASA1 / RFU, RB1 / Fold change vs veh, RB1 / RFU, PPFIA1 / Fold change vs veh, PPFIA1 / RFU, MAT2A / Fold change vs veh, MAT2A / RFU, CCT5 / Fold change vs veh, CCT5 / RFU, WDR92 / Fold change vs veh, WDR92 / RFU, CUX1 / Fold change vs veh, CUX1 / RFU, TTC7A / Fold change vs veh, TTC7A / RFU, TMEM135 / Fold change vs veh, TMEM135 / RFU, DEPTOR / Fold change vs veh, DEPTOR / RFU, CPM / Fold change vs veh, CPM / RFU, DNAJB6 / Fold change vs veh, DNAJB6 / RFU, CACNA2D3 / Fold change vs veh, CACNA2D3 / RFU, DTX4 / Fold change vs veh, DTX4 / RFU, TFCP2 / Fold change vs veh, TFCP2 / RFU, GMCL1 /// GMCL1P1 / Fold change vs veh, GMCL1 /// GMCL1P1 / RFU, AEBP2 / Fold change vs veh, AEBP2 / RFU, SNHG1 /// SNORD22 /// SNORD25 /// SNORD26 /// SNORD27 /// SNORD28 /// SNORD29 /// SNORD31 / Fold change vs veh, SNHG1 /// SNORD22 /// SNORD25 /// SNORD26 /// SNORD27 /// SNORD28 /// SNORD29 /// SNORD31 / Fold change (Aza/veh), C12orf56 (ProbeSet 11735607_a_at) / Fold change (ACY-1035/veh), C12orf56 (ProbeSet 11735607_a_at) / Fold change (Aza/veh), FGFR1OP (ProbeSet 11751329_s_at) / Fold change (ACY-1035/veh), FGFR1OP (ProbeSet 11751329_s_at) / Fold change (Aza/veh), VPS36 (ProbeSet 11739960_a_at) / Fold change (ACY-1035/veh), VPS36 (ProbeSet 11739960_a_at) / RFU SYPL1 (11715823_x_at) / Fold change /veh SYPL1 (11715823_x_at) / RFU IGFBP7 (11715501_s_at) / Fold change /veh IGFBP7 (11715501_s_at) / RFU REEP3 (11722064_at) / Fold change /veh REEP3 (11722064_at) / RFU IGLL1 (11728026_x_at) / Fold change /veh IGLL1 (11728026_x_at): dose or concentration left out as unconfirmed. As to conditions: ProbeSet 11731610_x_at; LIST B.

SMILES strings stand for the structures.

With `Nc1ccc(-c2cccs2)cc1NC(=O)c1ccc2c(c1)cc(C1CC1)n2CCN1CCOCC1` [ACY-1035], the “RFU, KIAA1704 /// LOC100996395” value is on record as 79.91 RFU.

The record behind these values is PMC5218480 (PLoS ONE, 2017).
